This assay concerns MX-1 breast xenograft, nude mice, tumor weight T/C. Put plainly: NCI In Vivo Anticancer Drug Screen. Data for tumor model Human Mammary Carcinoma MX-1 Xenograft (intrarenal inoculation) in NU/NU Swiss (nude) mice. The note with it: endpoint: mean tumor weight change, higher = larger tumour. The gist of the method: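 Activity is given as a ratio, with each measurement in the compound-treated arm divided by the matching measurement in vehicle-dosed controls. Tumour size or survival serves as the measured parameter.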
A general note: A xenograft is tissue or cells of one species grown in another, often human tumour cells in immunodeficient mice.

[1] abbreviates: dose: 50.0 mg/kg/injection, schedule: Q01DX010 (sc), vehicle: saline.
Where [2] appears, read: dose: 100.0 mg/kg/injection, schedule: Q01DX010 (sc), vehicle: saline.
Where [3] appears, read: dose: 200.0 mg/kg/injection, schedule: Q01DX010 (sc), vehicle: saline.
The mark [4] stands for this setting: dose: 400.0 mg/kg/injection, schedule: Q01DX010 (sc), vehicle: saline.

Several values for one entry are separate records, joined by “and”; a condition that tells them apart may be missing. Equal values may be shown once. Inconclusive results are not listed.

Regarding `Cc1ccccc1N(CC1CO1)CC1CO1` (stereo unspecified), the T/C reads like this: under setting [1], 54 % of control; under setting [2], 91 % of control; under setting [3], 89 % of control; under setting [4], 56 % of control; (dose: 800.0 mg/kg/injection, schedule: Q01DX010 (sc), vehicle: suspension in saline) 111 % of control.
Turning to `CNC(=O)OCc1nc(SC)n(C)c1COC(=O)NC`, the T/C reads like this: (dose: 50.0 mg/kg/injection, schedule: Q04DX003 (ip), vehicle: saline) 8 % of control; (dose: 100.0 mg/kg/injection, schedule: Q04DX003 (ip), vehicle: saline) 3 % of control; (dose: 200.0 mg/kg/injection, schedule: Q04DX003 (ip), vehicle: saline) -56 % of control.
For the compound `CC1OC(=O)C(C(C)C)NC(=O)C(C(C)C)OC(=O)C(C(C)C)NC(=O)C(C)OC(=O)C(C(C)C)NC(=O)C(C(C)C)OC(=O)C(C(C)C)NC(=O)C(C)OC(=O)C(C(C)C)NC(=O)C(C(C)C)OC(=O)C(C(C)C)NC1=O` (stereo unspecified), the T/C was 84 % of control (dose: 2.5 mg/kg/injection, schedule: Q01DX010 (sc), vehicle: saline with Tween-80); 150 % of control (dose: 5.0 mg/kg/injection, schedule: Q01DX010 (sc), vehicle: saline with Tween-80); 95 % of control and 112 % of control (dose: 10.0 mg/kg/injection, schedule: Q01DX010 (sc), vehicle: saline with Tween-80).
Turning to `N=C(N)SCc1c2ccccc2c(CSC(=N)N)c2ccccc12`, the T/C is 93 % of control (dose: 300.0 mg/kg/injection, schedule: Q04DX003 (sc), vehicle: suspension in saline); 152 % of control (dose: 600.0 mg/kg/injection, schedule: Q04DX003 (sc), vehicle: suspension in saline); 112 % of control (dose: 1200.0 mg/kg/injection, schedule: Q04DX003 (sc), vehicle: suspension in saline); 89 % of control (dose: 2400.0 mg/kg/injection, schedule: Q04DX003 (sc), vehicle: suspension in saline).
Turning to `COC1=CC(=O)N(C(=O)C2CSC(C(CO)NC(=O)c3csc(/C=N/O)n3)=N2)C1` (stereo unspecified), the T/C was 79 % of control (dose: 150.0 mg/kg/injection, schedule: Q04DX003 (sc), vehicle: Klucel (hydroxypropylcellulose) (HPC)); 81 % of control (dose: 300.0 mg/kg/injection, schedule: Q04DX003 (sc), vehicle: Klucel (hydroxypropylcellulose) (HPC)); 95 % of control (dose: 600.0 mg/kg/injection, schedule: Q04DX003 (sc), vehicle: Klucel (hydroxypropylcellulose) (HPC)).
In the case of `Nc1n[n+](-c2ccc(Cl)cc2)no1`, the T/C runs as follows: (dose: 25.0 mg/kg/injection, schedule: Q04DX003 (sc), vehicle: water) 93 % of control; (dose: 50.0 mg/kg/injection, schedule: Q04DX003 (sc), vehicle: water) 102 % of control.
For `Cc1nc(C(Cl)(Cl)Cl)[nH]c(=O)c1SCCO`, the T/C was 162 % of control (dose: 150.0 mg/kg/injection, schedule: Q04DX003 (ip), vehicle: distilled water + alcohol); 195 % of control (dose: 300.0 mg/kg/injection, schedule: Q04DX003 (ip), vehicle: distilled water + alcohol); 50 % of control (dose: 600.0 mg/kg/injection, schedule: Q04DX003 (ip), vehicle: distilled water + alcohol).
Turning to `O=C1c2c(O)cccc2-c2nn(CCNCCO)c3ccc(NCCNCCO)c1c23`, the T/C (dose: 11.0 mg/kg/injection, schedule: Q04DX003 (ip), vehicle: water) was -100 % of control.
On to `CC[C@]1(O)C[C@H]2CN(CCc3c([nH]c4ccccc34)[C@@](C(=O)OC)(c3cc4c(cc3OC)N(C=O)[C@H]3[C@@](O)(C(=O)OC)[C@H](OC(C)=O)[C@]5(CC)C=CCN6CC[C@]43[C@@H]65)C2)C1`, for which the T/C (dose: 0.5 mg/kg/injection, schedule: Q01DX010 (sc), vehicle: saline) is -100 % of control and -81 % of control; the T/C (dose: 1.0 mg/kg/injection, schedule: Q01DX010 (sc), vehicle: saline) was -99 % of control.
For `C[n+]1ccc(Nc2ccc(NC(=O)c3ccc(Nc4cc[n+](C)c5ccc(N)cc45)cc3)cc2)cc1`, the T/C (dose: 50.0 mg/kg/injection, schedule: Q04DX003 (sc), vehicle: distilled water + Tween-80) was 59 % of control.
For `NC(C/[N+]([O-])=N/O)C(=O)O` (stereo unspecified), the T/C was 98 % of control under setting [1] and 62 % of control under setting [2].
With `C/C(=N\NC(=S)N1CC2CCC(CC2)C1)c1cccc(C)n1`, the T/C (dose: 50.0 mg/kg/injection, schedule: Q04DX003 (ip), vehicle: saline with Tween-80) was 79 % of control.
With `Nc1ccc(Cl)cc1N`, the T/C is 116 % of control (dose: 450.0 mg/kg/injection, schedule: Q04DX003 (sc), vehicle: saline with Tween-80); 73 % of control (dose: 900.0 mg/kg/injection, schedule: Q04DX003 (sc), vehicle: saline with Tween-80); 71 % of control (dose: 1800.0 mg/kg/injection, schedule: Q04DX003 (sc), vehicle: saline with Tween-80).
Turning to `O=C(O)c1cc(C(=O)O)c(C(=O)O)cc1C(=O)O.[NH2-].[NH2-].[NH2-].[NH2-].[Pt+2].[Pt+2]`, the T/C is 113 % of control (dose: 1.25 mg/kg/injection, schedule: Q04DX003 (ip), vehicle: water); 97 % of control (dose: 5.0 mg/kg/injection, schedule: Q04DX003 (ip), vehicle: water); 60 % of control and 76 % of control (dose: 10.0 mg/kg/injection, schedule: Q04DX003 (ip), vehicle: water); 66 % of control (dose: 20.0 mg/kg/injection, schedule: Q04DX003 (ip), vehicle: water); 26 % of control (dose: 40.0 mg/kg/injection, schedule: Q04DX003 (ip), vehicle: water); 15 % of control (dose: 80.0 mg/kg/injection, schedule: Q04DX003 (ip), vehicle: water).
Take `CSC1SCC2C(=O)N(C)C(C(C)C)C(=O)OCC(NC(=O)c3cnc4ccccc4n3)C(=O)NC(C)C(=O)N(C)C1C(=O)N(C)C(C(C)C)C(=O)OCC(NC(=O)c1cnc3ccccc3n1)C(=O)NC(C)C(=O)N2C` (stereo unspecified): the T/C by setting is: (dose: 60.0 micrograms/kg/injection, schedule: Q01DX010 (sc), vehicle: saline) 109 % of control; (dose: 120.0 micrograms/kg/injection, schedule: Q01DX010 (sc), vehicle: saline) 87 % of control; (dose: 240.0 micrograms/kg/injection, schedule: Q01DX010 (sc), vehicle: saline) 40 % of control.
In the case of `O=C1C=CN(C2OC(CO)C(O)C2O)C(=O)C1` (stereo unspecified), the T/C is, setting by setting: under setting [1], 92 % of control; under setting [2], 41 % of control; under setting [3], 27 % of control; under setting [4], 75 % of control.
Turning to `COc1cc([C@@H]2c3cc4c(cc3[C@@H](OC3OC5COC(C)OC5C(O)C3O)[C@H]3COC(=O)[C@H]23)OCO4)cc(OC)c1O` (stereo partly specified), the T/C is 72 % of control (dose: 2.0 mg/kg/injection, schedule: Q01DX010 (sc), vehicle: saline); 97 % of control (dose: 4.0 mg/kg/injection, schedule: Q01DX010 (sc), vehicle: saline); 51 % of control (dose: 8.0 mg/kg/injection, schedule: Q01DX010 (sc), vehicle: saline); 72 % of control (dose: 16.0 mg/kg/injection, schedule: Q01DX010 (sc), vehicle: saline).
Consider `NC(=O)Oc1cccc(OC(N)=O)c1`, for which the T/C (dose: 300.0 mg/kg/injection, schedule: Q04DX003 (sc), vehicle: water) is 68 % of control; the T/C (dose: 600.0 mg/kg/injection, schedule: Q04DX003 (sc), vehicle: water) was 101 % of control; the T/C (dose: 1200.0 mg/kg/injection, schedule: Q04DX003 (sc), vehicle: water) was 53 % of control.
Turning to `O=C1N(Cl)C(=O)C(c2ccc(Cl)cc2)(c2ccc(Cl)cc2)N1Cl`, the T/C is 68 % of control (dose: 50.0 mg/kg/injection, schedule: Q01DX010 (sc), vehicle: saline with Tween-80); 111 % of control (dose: 100.0 mg/kg/injection, schedule: Q01DX010 (sc), vehicle: saline with Tween-80); 65 % of control (dose: 200.0 mg/kg/injection, schedule: Q01DX010 (sc), vehicle: saline with Tween-80); 87 % of control (dose: 400.0 mg/kg/injection, schedule: Q01DX010 (sc), vehicle: saline with Tween-80).
With `CC(=O)OCC1OC([S-])C(OC(C)=O)C(OC(C)=O)C1OC(C)=O.CC[PH+](CC)CC.CC[PH+](CC)CC.[Au].[Au]` (stereo unspecified), the T/C was 88 % of control (dose: 0.32 mg/kg/injection, schedule: Q04DX003 (sc), vehicle: Klucel (hydroxypropylcellulose) (HPC)); 112 % of control (dose: 0.63 mg/kg/injection, schedule: Q04DX003 (sc), vehicle: Klucel (hydroxypropylcellulose) (HPC)); 100 % of control (dose: 1.25 mg/kg/injection, schedule: Q04DX003 (sc), vehicle: Klucel (hydroxypropylcellulose) (HPC)); 87 % of control (dose: 2.5 mg/kg/injection, schedule: Q04DX003 (sc), vehicle: Klucel (hydroxypropylcellulose) (HPC)).
